According to patent publication US20060069132A1, “Azolecarboxamide herbicides” (priority 2004, published 2006):

Tests used:
Assay in all cases: Test C pre-/postemergence herbicide test
[1] = system: large crabgrass; format: in vivo, Digitaria sanguinalis; details: for Plant response rating, Crabgrass, Large / Plant response rating (0 = no effect, 100 = complete control), Crabgrass, Large: preemergence
Outline: (§1)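 Visual injury scores run from 0 (no effect) to 100 (complete control), assessed relative to untreated controls 12 to 14 days after treatment in the greenhouse. Chemicals were formulated in a non-phytotoxic solvent mixture with surfactant and applied to soil after planting or to emerged plants at the 1- to 4-leaf stage.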

[2] = system: common ragweed; format: in vivo, Ambrosia elatior; parameters: key to Plant response rating, Ragweed: 0 = no effect, 100 = complete control; details: for Plant response rating, Ragweed / Plant response rating (0 = no effect, 100 = complete control), Ragweed: preemergence
Outline: as §1

[3] = system: kochia; format: in vivo, Kochia scoparia; details: for Plant response rating, Kochia / Plant response rating (0 = no effect, 100 = complete control), Kochia: preemergence
Outline: as §1

[4] = system: common (oilseed) sunflower; format: in vivo, Helianthus annuus; details: for Plant response rating, Sunflower / Plant response rating (0 = no effect, 100 = complete control), Sunflower: preemergence
Outline: as §1

[5] = system: corn; format: in vivo, Zea mays; details: for Plant response rating, Corn / Plant response rating (0 = no effect, 100 = complete control), Corn: preemergence
Outline: as §1

[6] = system: giant foxtail; format: in vivo, Setaria faberi; details: for Plant response rating, Foxtail, Giant / Plant response rating (0 = no effect, 100 = complete control), Foxtail, Giant: preemergence
Outline: as §1

[7] = system: morningglory; format: in vivo, Ipomoea coccinea; parameters: key to Plant response rating, Morningglory: 0 = no effect, 100 = complete control; details: for Plant response rating, Morningglory / Plant response rating (0 = no effect, 100 = complete control), Morningglory: preemergence
Outline: as §1

[8] = system: bermudagrass; format: in vivo, Cynodon dactylon; details: for Plant response rating, Bermudagrass / Plant response rating (0 = no effect, 100 = complete control), Bermudagrass: preemergence
Outline: as §1

[9] = 500 g ai/ha, scale 0 to 100 (0 no effect, 100 complete control), visual, 12 to 14 days
[10] = 125 g ai/ha, scale 0 (no effect) to 100 (complete control), visual, 12 to 14 days
[11] = 250 g ai/ha, scale 0 to 100 (0 no effect, 100 complete control), visual, 12 to 14 days
[12] = Preemergence, 500 g ai/ha, scale 0 to 100, 0 no effect, 100 complete control

## CCN(CC)C(=O)c1cccc(NC(=O)c2nn(C(C)(C)C)nc2C)c1 [Compound 418]
[1]; 62 g ai/ha, scale 0 to 100
  Plant response rating, Crabgrass, Large: 95
[1]; 125 g ai/ha
  Plant response rating (0 = no effect, 100 = complete control), Crabgrass, Large: 100
[1]; 250 g ai/ha, scale 0-100
  Plant response rating, Crabgrass, Large: 100
[1]; [9]
  Plant response rating, Crabgrass, Large: 100
[2]; 62 g ai/ha, scale 0 to 100
  Plant response rating, Ragweed: 50
[2]; 125 g ai/ha
  Plant response rating (0 = no effect, 100 = complete control), Ragweed: 70
[2]; [9]
  Plant response rating, Ragweed: 100
[3]; 62 g ai/ha, scale 0 to 100
  Plant response rating, Kochia: 65
[3]; 125 g ai/ha
  Plant response rating (0 = no effect, 100 = complete control), Kochia: 80
[3]; 250 g ai/ha, scale 0-100
  Plant response rating, Kochia: 85
[3]; [9]
  Plant response rating, Kochia: 95
[4]; 62 g ai/ha, scale 0 to 100
  Plant response rating, Sunflower: 0
[4]; 125 g ai/ha
  Plant response rating (0 = no effect, 100 = complete control), Sunflower: 0
[4]; [9]
  Plant response rating, Sunflower: 0
[5]; 62 g ai/ha, scale 0 to 100
  Plant response rating, Corn: 0
[5]; 125 g ai/ha
  Plant response rating (0 = no effect, 100 = complete control), Corn: 10
[5]; 250 g ai/ha, scale 0-100
  Plant response rating, Corn: 40
[5]; [9]
  Plant response rating, Corn: 80
[6]; 62 g ai/ha, scale 0 to 100
  Plant response rating, Foxtail, Giant: 65
[6]; 125 g ai/ha
  Plant response rating (0 = no effect, 100 = complete control), Foxtail, Giant: 95
[6]; 250 g ai/ha, scale 0-100
  Plant response rating, Foxtail, Giant: 100
[6]; [9]
  Plant response rating, Foxtail, Giant: 100
[7]; 62 g ai/ha, scale 0 to 100
  Plant response rating, Morningglory: 20
[7]; 125 g ai/ha
  Plant response rating (0 = no effect, 100 = complete control), Morningglory: 70
[7]; [9]
  Plant response rating, Morningglory: 100
[8]; 62 g ai/ha, scale 0 to 100, 0 no effect, 100 complete control
  Plant response rating, Bermudagrass: 100
[8]; 125 g ai/ha
  Plant response rating (0 = no effect, 100 = complete control), Bermudagrass: 100
[8]; 250 g ai/ha, scale 0-100
  Plant response rating, Bermudagrass: 100
[8]; [9]
  Plant response rating, Bermudagrass: 100

## CCCn1nc(C(C)(C)C)cc1C(=O)Nc1cccc(C(=O)NCC)c1 [Compound 57]
[1]; 62 g ai/ha
  Plant response rating (0 = no effect, 100 = complete control), Crabgrass, Large: 95
[1]; [10]
  Plant response rating, Crabgrass, Large: 100
[1]; [11]
  Plant response rating, Crabgrass, Large: 100
[1]; [12]
  Crabgrass, Large plant response rating: 100
[2]; 62 g ai/ha
  Plant response rating (0 = no effect, 100 = complete control), Ragweed: 65
[2]; [10]
  Plant response rating, Ragweed: 100
[2]; [11]
  Plant response rating, Ragweed: 100
[2]; [12]
  Ragweed plant response rating: 100
[3]; 62 g ai/ha
  Plant response rating (0 = no effect, 100 = complete control), Kochia: 100
[3]; [10]
  Plant response rating, Kochia: 100
[3]; [11]
  Plant response rating, Kochia: 100
[3]; [12]
  Kochia plant response rating: 100
[4]; 62 g ai/ha
  Plant response rating (0 = no effect, 100 = complete control), Sunflower: 0
[4]; [10]
  Plant response rating, Sunflower: 0
[4]; [11]
  Plant response rating, Sunflower: 0
[4]; [12]
  Sunflower plant response rating: 0
[5]; 62 g ai/ha
  Plant response rating (0 = no effect, 100 = complete control), Corn: 0
[5]; [10]
  Plant response rating, Corn: 0
[5]; [11]
  Plant response rating, Corn: 0
[5]; [12]
  Corn plant response rating: 0
[6]; 62 g ai/ha
  Plant response rating (0 = no effect, 100 = complete control), Foxtail, Giant: 20
[6]; [10]
  Plant response rating, Foxtail, Giant: 95
[6]; [11]
  Plant response rating, Foxtail, Giant: 100
[6]; [12]
  Foxtail, Giant plant response rating: 100
[7]; 62 g ai/ha
  Plant response rating (0 = no effect, 100 = complete control), Morningglory: 0
[7]; [10]
  Plant response rating, Morningglory: 0
[7]; [11]
  Plant response rating, Morningglory: 25
[7]; [12]
  Morningglory plant response rating: 25
[8]; 62 g ai/ha
  Plant response rating (0 = no effect, 100 = complete control), Bermudagrass: 55
[8]; [10]
  Plant response rating, Bermudagrass: 95
[8]; [11]
  Plant response rating, Bermudagrass: 95
[8]; [12]
  Bermudagrass plant response rating: 100
